Test results: patent publication US20260285850A1, “SUBSTITUTED OXAZOLIDINONES AND IMIDAZOLINONES AS HERBICIDES” (FMC CORPORATION, priority 2023, published 2026)

Experiments:
Type in all cases: in vivo
[1] = tested on: blackgrass (Alopecurus myosuroides); test: Test A preemergence soil spray, visual injury rating 0-100; conditions: 10 days
How it was run: (§1)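 Loam-sand pots got test material in surfactant-containing solvent, either as a directed soil spray before emergence or on plants at the one- to two-leaf stage. Visual injury (0-100) was read after ten greenhouse days.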

[2] = tested on: oat, wild (wild oat, Avena fatua); test: as above; conditions: 10 days
How it was run: as §1

[3] = tested on: palmer (palmer amaranth, palmer pigweed, Amaranthus palmeri); test: as above; conditions: 10 days
How it was run: as §1

[4] = tested on: green foxtail (Setaria viridis); test: as above; conditions: 10 days
How it was run: as §1

corn (Zea mays) [5] = test: as above; conditions: 10 days
How it was run: as §1

[6] = tested on: barnyardgrass (Echinochloa crus-galli); test: as above; conditions: 10 days
How it was run: as §1

[7] = tested on: ryegrass, Italian (italian ryegrass, Lolium multiflorum); test: as above; conditions: 10 days
How it was run: as §1

soybean (Glycine max) [8] = test: as above; conditions: 10 days
How it was run: as §1

[9] = tested on: wheat (Triticum aestivum); test: as above; conditions: 10 days
How it was run: as §1

[10] = tested on: ragweed (common ragweed, Ambrosia artemisiifolia); test: as above; conditions: 10 days
How it was run: as §1

kochia (Bassia scoparia) [11] = test: as above; conditions: 10 days
How it was run: as §1

[12] = tested on: sedge, umbrella (small-flower umbrella sedge, Cyperus difformis); test: Test B flooded paddy test, visual plant response rating 0-100; conditions: 250 g ai/ha, Flood, applied to paddy water, evaluated after 13 days
How it was run: (§2)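 Visual evaluation after 13 days. Water-applied treatment, 3 cm flood depth held constant, plants at 2-leaf stage at treatment.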

rice (Oryza sativa) = test: as above; conditions: 250 g ai/ha, Flood, applied to paddy water, evaluated after 13 days
How it was run: as §2

[13] = tested on: barnyardgrass (Echinochloa crusgalli); test: as above; conditions: 250 g ai/ha, Flood, applied to paddy water, evaluated after 13 days
How it was run: as §2

[14] = tested on: ducksalad (Heteranthera limosa); test: as above; conditions: 250 g ai/ha, Flood, applied to paddy water, evaluated after 13 days
How it was run: as §2

[15] = tested on: blackgrass (Alopecurus myosuroides); test: Test A postemergence application, visual injury rating 0-100
How it was run: as §1

[16] = tested on: oat, wild (wild oat, Avena fatua); test: as above
How it was run: as §1

[17] = tested on: palmer (palmer amaranth, palmer pigweed, Amaranthus palmeri); test: as above
How it was run: as §1

[18] = tested on: green foxtail (Setaria viridis); test: as above
How it was run: as §1

corn (Zea mays) [19] = test: as above
How it was run: as §1

[20] = tested on: barnyardgrass (Echinochloa crus-galli); test: as above
How it was run: as §1

[21] = tested on: ryegrass, Italian (italian ryegrass, Lolium multiflorum); test: as above
How it was run: as §1

soybean (Glycine max) [22] = test: as above
How it was run: as §1

[23] = tested on: wheat (Triticum aestivum); test: as above
How it was run: as §1

[24] = tested on: ragweed (common ragweed, Ambrosia artemisiifolia); test: as above
How it was run: as §1

[25] = tested on: horseweed (Erigeron canadensis); test: as above
How it was run: as §1

kochia (Bassia scoparia) [26] = test: as above
How it was run: as §1

[27] = 62 g ai/ha, 0 = no effect, 100 = complete control
[28] = 62 g ai/ha, postemergence, 10 days, 0 = no effect, 100 = complete control
[29] = Postemergence, 16 g ai/ha, greenhouse 10 days, 0 no effect, 100 complete control

## CCOC(=O)C1=CCC(NC(=O)C2(C)CN(c3cc(F)cc(F)c3)C(=O)O2)C1 (centres unmarked) [Compound 112]
[1]; 16 g ai/ha, 0 to 100 scale
  Blackgrass plant response rating: 0
[1]; [27]
  Blackgrass plant response rating (0-100): 30
[2]; 16 g ai/ha, 0 to 100 scale
  Oat, Wild plant response rating: 0
[2]; [27]
  Oat, Wild plant response rating (0-100): 0
[3]; 16 g ai/ha, 0 to 100 scale
  Pigweed, Palmer plant response rating: 0
[3]; [27]
  Pigweed, Palmer plant response rating (0-100): 100
[4]; 16 g ai/ha, 0 to 100 scale
  Foxtail, Green plant response rating: 20
[4]; [27]
  Foxtail, Green plant response rating (0-100): 100
Corn (Zea mays) [5]; 16 g ai/ha, 0 to 100 scale
  Corn plant response rating: 20
Corn (Zea mays) [5]; [27]
  Corn plant response rating (0-100): 60
[6]; 16 g ai/ha, 0 to 100 scale
  Barnyardgrass plant response rating: 20
[6]; [27]
  Barnyardgrass plant response rating (0-100): 100
[7]; 16 g ai/ha, 0 to 100 scale
  Ryegrass, Italian plant response rating: 60
[7]; [27]
  Ryegrass, Italian plant response rating (0-100): 80
Soybean (Glycine max) [8]; 16 g ai/ha, 0 to 100 scale
  Soybean plant response rating: 10
Soybean (Glycine max) [8]; [27]
  Soybean plant response rating (0-100): 0
[9]; 16 g ai/ha, 0 to 100 scale
  Wheat plant response rating: 40
[9]; [27]
  Wheat plant response rating (0-100): 70
[10]; 16 g ai/ha, 0 to 100 scale
  Ragweed plant response rating: 0
[10]; [27]
  Ragweed plant response rating (0-100): 0
Kochia (Bassia scoparia) [11]; 16 g ai/ha, 0 to 100 scale
  Kochia plant response rating: 0
Kochia (Bassia scoparia) [11]; [27]
  Kochia plant response rating (0-100): 70
[12]
  Plant response rating, Sedge, Umbrella (0 to 100 scale, 0 is no effect and 100 is complete control): 95
Rice (Oryza sativa)
  Plant response rating, Rice (0 to 100 scale, 0 is no effect and 100 is complete control): 85
[13]
  Plant response rating, Barnyardgrass (0 to 100 scale, 0 is no effect and 100 is complete control): 80
[14]
  Plant response rating, Ducksalad (0 to 100 scale, 0 is no effect and 100 is complete control): 95
[15]; [28]
  Blackgrass plant response rating (0-100): 80
[15]; [29]
  Blackgrass plant response rating (0 to 100 scale): 70
[16]; [28]
  Oat, Wild plant response rating (0-100): 90
[16]; [29]
  Oat, Wild plant response rating (0 to 100 scale): 50
[17]; [28]
  Pigweed, Palmer plant response rating (0-100): 80
[17]; [29]
  Pigweed, Palmer plant response rating (0 to 100 scale): 30
[18]; [28]
  Foxtail, Green plant response rating (0-100): 90
[18]; [29]
  Foxtail, Green plant response rating (0 to 100 scale): 90
Corn (Zea mays) [19]; [28]
  Corn plant response rating (0-100): 100
Corn (Zea mays) [19]; [29]
  Corn plant response rating (0 to 100 scale): 100
[20]; [28]
  Barnyardgrass plant response rating (0-100): 100
[20]; [29]
  Barnyardgrass plant response rating (0 to 100 scale): 100
[21]; [28]
  Ryegrass, Italian plant response rating (0-100): 90
[21]; [29]
  Ryegrass, Italian plant response rating (0 to 100 scale): 60
Soybean (Glycine max) [22]; [28]
  Soybean plant response rating (0-100): 80
Soybean (Glycine max) [22]; [29]
  Soybean plant response rating (0 to 100 scale): 60
[23]; [28]
  Wheat plant response rating (0-100): 90
[23]; [29]
  Wheat plant response rating (0 to 100 scale): 90
[24]; [28]
  Ragweed plant response rating (0-100): 50
[24]; [29]
  Ragweed plant response rating (0 to 100 scale): 50
[25]; [28]
  Horseweed plant response rating (0-100): 0
[25]; [29]
  Horseweed plant response rating (0 to 100 scale): 0
Kochia (Bassia scoparia) [26]; [28]
  Kochia plant response rating (0-100): 90
Kochia (Bassia scoparia) [26]; [29]
  Kochia plant response rating (0 to 100 scale): 60
